Experimental data reported in US5654309A, “Pyridopyrimidine derivatives, their production and use” (Takeda Chemical Industries, Ltd., priority 1992, dated 1997).

Key:
[1] = target: T1, Endothelin-A Receptor (human) (Homo sapiens, UniProt P25101); test: Endothelin Receptor-Assay, [125I]endothelin-1 binding, insect cell (Sf9) membrane having human endothelin-A receptors; conditions: human ETA, 25° C., 60 minutes, concentration causing PMB=50%
T1 construct: expressed in transfected cells; host or cells: Sf9 insect cells
T1 sequence (P25101 21-427): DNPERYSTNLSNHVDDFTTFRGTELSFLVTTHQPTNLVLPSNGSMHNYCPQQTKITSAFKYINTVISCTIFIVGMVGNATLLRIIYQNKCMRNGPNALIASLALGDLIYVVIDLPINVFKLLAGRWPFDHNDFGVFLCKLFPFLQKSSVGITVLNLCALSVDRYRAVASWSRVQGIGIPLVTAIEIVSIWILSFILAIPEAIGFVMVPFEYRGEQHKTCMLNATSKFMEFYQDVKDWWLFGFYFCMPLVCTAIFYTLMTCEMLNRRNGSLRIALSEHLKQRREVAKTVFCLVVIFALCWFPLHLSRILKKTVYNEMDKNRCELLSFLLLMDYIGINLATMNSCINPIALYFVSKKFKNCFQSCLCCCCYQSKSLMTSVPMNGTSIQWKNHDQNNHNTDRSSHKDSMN
Protocol: (§1) Endothelin (ET) receptors were prepared by diluting fractions of insect cell (Sf9) membrane having human endothelin-A (ETA) receptors or human endothelin-B (ETB) receptors appeared, with an assay buffer [20 mM Tris-HCl, 2 mM EGTA (ethyleneglycol bis(2-aminoethylether) tetra acetic acid), 5 mM magnesium acetate, 0.1% BSA (bovine serum albumin), 0.03% NAN3, 0.5 mM PMS F (phenyl methyl sulfonyl fluoride), 20 μg/ml leupeptin, 4 μg/ml E-64 (products of the Peptide Institute), 1 μg/ml pepstatin, (pH 7.2)] respectively in a concentration of 1.4 μg/ml in the former case and 0.7 μg/ml in the latter case.
(§2) To 100 μl of each portion was added 5 nM [^125 I] endothelin-1 (2 μl). A dimethylsulfoxide solution (3 μl) of the sample was added thereto and incubated at 25° C. for 60 minutes.
(§3) And, to determine the maximum binding amount (B0) and non-specific binding amount (NSB), lots to which a dimethyl sulfoxide solution (3 μl) or a dimethyl sulfoxide solution (3 μl) containing endothelin-1 (10^-5 M) had been added, were also incubated.
(§4) These lots were supplemented with 0.05% CHAPS (3-[(3-[…])dimethylammonio]-1-propanesulfonate)-assay buffer (1.5 ml), subjected to filtration through a glass fiber filter GF/F (trade name; product of Wattman Ltd. (England)), and then washed with the same buffer (1.5 ml).
(§5) Radioactivity on the filter was counted in a gamma-counter to determine the Percent Maximum Binding (PMB) in accordance with the aforesaid calculation formula. The concentration causing PMB=50% was determined as IC50 value.

[2] = target: T2, Endothelin-B Receptor (human) (Homo sapiens, UniProt P24530); test: Endothelin Receptor-Assay, [125I]endothelin-1 binding, insect cell (Sf9) membrane having human endothelin-B receptors; conditions: human ETB, 25° C., 60 minutes, concentration causing PMB=50%
T2 construct: expressed in transfected cells; host or cells: Sf9 insect cells
T2 sequence (P24530 27-442): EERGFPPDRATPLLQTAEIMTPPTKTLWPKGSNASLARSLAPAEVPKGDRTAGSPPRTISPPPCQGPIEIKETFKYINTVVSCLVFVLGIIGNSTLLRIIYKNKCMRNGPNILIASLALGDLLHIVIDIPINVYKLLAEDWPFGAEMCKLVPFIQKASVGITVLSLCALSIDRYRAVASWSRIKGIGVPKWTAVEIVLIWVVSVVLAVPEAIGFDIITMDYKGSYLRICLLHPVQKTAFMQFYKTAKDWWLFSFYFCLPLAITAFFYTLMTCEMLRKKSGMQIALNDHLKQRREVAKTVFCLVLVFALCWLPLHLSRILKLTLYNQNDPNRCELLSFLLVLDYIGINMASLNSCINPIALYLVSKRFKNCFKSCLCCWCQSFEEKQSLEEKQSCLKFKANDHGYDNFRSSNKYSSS
Protocol: as §1, §2, §3, §4, §5

[3] = target: T3, Endothelin-B Receptor (bovine) (Bos taurus, UniProt P28088); test: Endothelin Receptor-Assay, [125I]endothelin-1 binding, bovine cerebral membrane; conditions: 25° C., 60 minutes, concentration causing PMB=50%
T3 construct: a fraction of bovine cerebral membrane; from tissue; host or cells: bovine cerebral membrane
T3 sequence (P28088 27-441): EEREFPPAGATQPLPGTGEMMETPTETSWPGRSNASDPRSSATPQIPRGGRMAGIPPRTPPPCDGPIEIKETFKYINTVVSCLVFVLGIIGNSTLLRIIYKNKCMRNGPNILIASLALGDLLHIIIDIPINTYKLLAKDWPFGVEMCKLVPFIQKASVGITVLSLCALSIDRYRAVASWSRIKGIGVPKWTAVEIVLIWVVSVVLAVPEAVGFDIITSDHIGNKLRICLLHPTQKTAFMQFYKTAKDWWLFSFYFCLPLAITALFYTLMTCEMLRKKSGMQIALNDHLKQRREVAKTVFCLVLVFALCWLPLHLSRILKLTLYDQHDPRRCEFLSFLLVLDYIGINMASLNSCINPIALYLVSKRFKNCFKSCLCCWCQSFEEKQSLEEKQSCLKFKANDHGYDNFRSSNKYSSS
Protocol: Endothelin-B receptor was prepared by diluting a fraction of bovine cerebral membrane with the same assay buffer as mentioned above to make a solution having a concentration of 180 μg/ml.
as §2
And, to determine the maximum binding amount (B0) and non-specific binding amount (NSB), lots to which a dimethyl sulfoxide solution (3 μl) or a dimethyl sulfoxide solution (3 μl) containing endothelin-1 (10^-5 M) was added were also incubated.
as §4
(§6) Radioactivity on the filter was counted in a gamma-counter to determine the Percent Maximum Binding (PMB) in accordance with the following calculation formula.
The concentration causing PMB=50% was determined as IC50 value.
PMB=[(B-NSB)/(B0 -NSB)]×100

[4] = target: T4, Endothelin-A Receptor (porcine) (Sus scrofa, UniProt Q29010); test: Endothelin Receptor-Assay, [125I]endothelin-1 binding, porcine cardiac ventricular muscle membrane; conditions: 25° C., 60 minutes, concentration causing PMB=50%
T4 construct: a fraction of porcine cardiac ventricular muscle membrane; from tissue; host or cells: porcine cardiac ventricular muscle membrane
T4 sequence (Q29010 21-427): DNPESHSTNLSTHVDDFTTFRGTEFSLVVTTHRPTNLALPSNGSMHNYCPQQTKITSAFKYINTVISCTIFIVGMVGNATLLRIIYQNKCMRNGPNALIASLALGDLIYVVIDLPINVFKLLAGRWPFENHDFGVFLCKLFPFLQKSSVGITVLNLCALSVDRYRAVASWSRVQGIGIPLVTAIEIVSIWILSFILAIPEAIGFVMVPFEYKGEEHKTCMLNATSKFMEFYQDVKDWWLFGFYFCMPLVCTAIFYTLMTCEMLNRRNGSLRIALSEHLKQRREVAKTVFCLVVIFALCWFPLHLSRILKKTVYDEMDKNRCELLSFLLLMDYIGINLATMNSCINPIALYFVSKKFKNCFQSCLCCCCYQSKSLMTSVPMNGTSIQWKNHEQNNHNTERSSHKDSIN
Protocol: Endothelin-A receptors was prepared by diluting a fraction of porcine cardiac ventricular muscle membrane with an assay buffer [20 mM Tris-HCl, 2 mM EGTA (ethyleneglycol bis(2-aminoethylether) tetra acetic acid), 5 mM magnesium acetate, 0.1% BSA (bovine serum albumin), 0.03% NAN3, 0.5 mM PMSF (phenyl methyl sulfonyl fluoride), 20 μg/ml leupeptin, 4 μg/ml E-64 (products of the Peptide Institute), 1 μg/ml pepstatin, (pH 7.2)] to make a solution of the fraction of porcine cardiac ventricular membrane (12 μg/ml).
as §2
And, to determine the maximum binding amount (B0) and non-specific binding amount (NSB), lots to which a dimethyl sulfoxide solution (3 μl) or a dimethyl sulfoxide solution (3 μl) containing endothelin-1 (10^-5 M) was added were also incubated. […]
as §6
The concentration causing PMB=50% was determined as IC50 value. […]

SMILES | IC50 [1] [µM] | IC50 [2] [µM] | IC50 [3] [µM] | IC50 [4] [µM]
CCOC(=O)Cn1c(=O)c2c(-c3cc(=O)c4ccccc4[nH]3)c(C(=O)O)c(C(C)C)nc2n(Cc2ccc(OC)cc2OC)c1=O [Example 19 Compound No. 5] | 0.98 | 23 | – | –
CCOC(=O)Cn1c(=O)c2c(-c3cc(=O)c4ccccc4[nH]3)c(C(=O)O)c(C(C)C)nc2n(Cc2ccccc2OC)c1=O [Example 19 Compound No. 2] | 0.07 | 65 | – | –
COc1ccccc1Cn1c(=O)n(CC(=O)O)c(=O)c2c(-c3cc(=O)c4ccccc4[nH]3)c(C(=O)O)c(C(C)C)nc21 [Example 20] | 0.12 | 14 | – | –
CCOC(=O)Cn1c(=O)c2c(-c3ccc4ccccc4n3)c(C(=O)O)c(C(C)C)nc2n(Cc2ccccc2OC)c1=O [Example 17 Compound No. 1] | 0.71 | 19 | – | –
COc1ccccc1Cn1c(=O)n(CC(=O)O)c(=O)c2c(-c3ccc4ccccc4n3)c(C(=O)O)c(C(C)C)nc21 [Example 14, 2,4(1H,3H)-dioxo-6-carboxy-7-isopropyl-1-(2-methoxybenzyl)-5-(2-quinolyl)pyrido[2,3-d]pyrimidine-3-acetic Acid] | 3.7 | 67 | – | –
CSc1ccccc1Cn1c(=O)n(CC(=O)O)c(=O)c2c(-c3cc(=O)c4ccccc4[nH]3)c(C(=O)O)c(C(C)C)nc21 [Example 21 Compound No. 9] | 0.056 | 14 | – | –
CCOC(=O)c1c(C)nc2c(c1-c1ccc(OC)cc1)c(=O)n(CC(=O)O)c(=O)n2Cc1ccccc1OC [Example 12, 2,4(1H,3H)-dioxo-6-ethoxycarbonyl-7-methyl-1-(2-methoxybenzyl)-5-(4-methoxyphenyl)pyrido[2,3-d]pyrimidine-3-acetic Acid] | 22 | – | 130 | 18
CCOC(=O)c1c(C(C)C)nc2c(c1-c1cc(=O)c3ccccc3[nH]1)c(=O)n(CC(=O)O)c(=O)n2Cc1ccccc1OC [Example 23, 2,4(1H,3H)-dioxo-6-ethoxycarbonyl-7-isopropyl-1-(2-methoxybenzyl)-5-[2-(4-quinolonyl)]pyrido[2,3-d]pyrimidine-3-acetic Acid] | 0.92 | 4.3 | – | –
COc1ccccc1Cn1c(=O)n(CC(=O)OC(C)(C)C)c(=O)c2c(-c3ccc4ccccc4n3)c(C(=O)O)c(C(C)C)nc21 [Example 16, t-Butyl [2,4(1H,3H)-dioxo-6-carboxy-7-isopropyl-1-(2-methoxybenzyl)-5-(2-quinolyl)pyrido[2,3-d]pyrimidine]-3-acetate] | 1.6 | 69 | – | –
CCOC(=O)c1c(C(C)C)nc2c(c1-c1ccc3ccccc3n1)c(=O)n(CC(=O)O)c(=O)n2Cc1ccccc1OC [Example 28 Compound No. 8] | 1.1 | 76 | – | –
CCOC(=O)c1c(C(C)C)nc2c(c1-c1ccc(C)cc1)c(=O)n(CC(=O)O)c(=O)n2Cc1ccccc1OC [Example 10, 2,4(1H,3H)-dioxo-6-ethoxycarbonyl-7-isopropyl-1-(2-methoxbenzyl)-5-(4-tolyl)pyrido[2,3-d]pyrimidine-3-acetic Acid] | 11 | – | 64 | 11
COc1ccccc1Cn1c(=O)n(CC(=O)OC(C)(C)C)c(=O)c2c(-c3cc(=O)c4ccccc4[nH]3)c(C(=O)O)c(C(C)C)nc21 [Example 18, t-Butyl [2,4(1H,3H)-dioxo-6-carboxy-7-isopropyl-1-(2-methoxbenzyl)-5-[2-(4-quinolonyl)]pyrido[2,3-d]pyrimidine]-3-acetate] | 0.15 | 69 | – | –
COc1ccccc1Cn1c(=O)n(CC(=O)O)c(=O)c2c(-c3ccc4ccccc4n3)c(C(=O)OCC(C)C)c(C(C)C)nc21 [Example 27, 2,4(1H,3H)-dioxo-6-isobutoxycarbonyl-7-isopropyl-1-(2-methoxybenzyl)-5-(2-quinolyl)pyrido[2,3-d]pyrimidine-3-acetic Acid] | 4.5 | 47 | – | –
COc1ccc(Cn2c(=O)n(CC(=O)O)c(=O)c3c(-c4ccc5ccccc5n4)c(C(=O)O)c(C(C)C)nc32)c(OC)c1 [Example 15 Compound No. 4] | 0.89 | 95 | – | –
COc1ccccc1Cn1c(=O)n(CC(=O)O)c(=O)c2c(-c3ccc4ccccc4n3)c(C(=O)OCCC#N)c(C(C)C)nc21 [Example 29, 2,4(1H,3H)-dioxo-6-cyanoethoxycarbonyl-7-isopropyl-1-(2-methoxybenzyl)-5-(2-quinolyl)pyrido[2,3-d]pyrimidine-3-acetic Acid] | 0.57 | 95 | – | –
CCOC(=O)Cn1c(=O)c2c(-c3cc(=O)c4ccccc4[nH]3)c(C(=O)O)c(C(C)C)nc2n(Cc2ccccc2SC)c1=O [Example 31, Ethyl [2,4(1H,3H)-dioxo-6-carboxy-7-isopropyl-1-(2-methylthiobenzyl)-5-[2-(4-quinolonyl)]pyrido[2,3-d]pyrimidine]-3-acetate] | 0.12 | 88 | – | –
